# Results from publication PMC7885111, “ApmA Is a Unique Aminoglycoside Antibiotic Acetyltransferase That Inactivates Apramycin” (mBio, 2021).
# Assays:
# ApmA [1] = target: T1, ApmA (Staphylococcus aureus, UniProt A0A1D0AST6); assay: X-ray crystallography ([…] A); assay type: binding; conditions: acetyl donor; crystals: 0.1 M citric acid pH 3.6, 30% PEG 200, 5 mM apramycin, 2 mM acetyl-CoA
# T1 construct: full length, residues 1-274 described; synthetic gene in pET19b-TEV, E. coli BL21(DE3) host; N-terminal His10 tag cut by TEV for crystals; SeMet form also made; trimer
# T1 sequence (A0A1D0AST6 entry or part of it): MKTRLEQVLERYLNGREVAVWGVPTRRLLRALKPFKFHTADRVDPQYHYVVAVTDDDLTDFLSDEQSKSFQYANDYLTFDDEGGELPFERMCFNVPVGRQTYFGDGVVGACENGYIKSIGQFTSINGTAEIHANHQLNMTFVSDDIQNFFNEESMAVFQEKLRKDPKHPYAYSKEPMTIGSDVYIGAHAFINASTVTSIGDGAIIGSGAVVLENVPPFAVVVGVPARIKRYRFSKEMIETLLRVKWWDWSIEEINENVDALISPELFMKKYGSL
# ApmA [2] = target: T1, ApmA; assay: X-ray crystallography ([…] A); acetylation product shown by HR-ESI-MS and NMR; assay type: binding; conditions: crystals: 0.2 M CaCl (so in the source), 20% PEG 3350, 5 mM apramycin; turnover: 500 uM acetyl-CoA, pH 7.5, room temperature; acetylated at 2'-NH2; PDB id printed as 7J6M2 (typo for 7JM2)
Structure (SMILES),X-ray crystallography (2.30 A) (ApmA [1]),X-ray crystallography (1.85 A); acetylation product shown by HR-ESI-MS and NMR (ApmA [2])
CC(=O)SCCNC(=O)CCNC(=O)[C@H](O)C(C)(C)COP(=O)(O)OP(=O)(O)OC[C@H]1O[C@@H](n2cnc3c(N)ncnc32)[C@H](O)[C@@H]1OP(=O)(O)O [acetyl-CoA],7JM1 (ApmA complex with acetyl-CoA),–
CN[C@@H]1[C@@H](O[C@H]2O[C@H](CO)[C@@H](N)[C@H](O)[C@H]2O)O[C@H]2C[C@@H](N)[C@@H](O[C@H]3[C@H](O)[C@@H](O)[C@H](N)C[C@@H]3N)O[C@@H]2[C@@H]1O [apramycin],–,Crystals of the apoenzyme and ApmA in complex with apramycin or acetyl-CoA were obtained
